Reference: US20230399325A1, “SUCCINATE AND CRYSTAL FORM THEREOF AS THERAPEUTICS” (AUCENTRA THERAPEUTICS PTY LTD, priority 2020, published 2023)
Like-named read-outs stand apart in the source and are kept apart here.

Tests used:
Raji = assay: Thymidine incorporation (3H-TdR) anti-proliferative assay, Raji; format: cell-based; conditions: Homo sapiens, Lymphoma
Method: (§1) The thymidine incorporation (3H-TdR) assay was used to assess the anti-proliferative effect of the Compound A succinate on tumor cell lines. The cells were treated with a series of concentrations of Compound A succinate for 24 hours; 3H-TdR was added, and the cells were continued in the incubator for further 48 hours. Scintillation fluid was added, read on a liquid scintillation counter, and the inhibiting cell growth by 50% (IC50) was calculated as shown in Table 5.

[1] = Dynamic solubility in water and FaSSIF at 37° C.; format: physicochemical; conditions: for solubility at 1 h / solubility at 2 h / solubility at 4 h / solubility at 24 h: thermodynamic from solid, read-out: S: Solubility
[2] = tested on: COLO 205 colorectal tumor xenograft; assay: COLO 205 colorectal tumor xenograft; format: in vivo, mice; conditions: for Tumor volume (±S): 21 days; for Inhibition of tumor growth (T/C): day 21, succinate
Method: A separate study of Compound A succinate was conducted in COLO 205 colorectal tumor xenograft. The tumor-bearing mice (n=8) were treated orally with vehicle (ultra-pure water), or Compound A succinate (50 or 100 mg/kg) once daily for 21 days. As a positive control chemotherapy 5-FU (15 mg/kg) was given intraperitoneally. […] 5-FU was also effective with a T/C=47.2% (Table 7).

PANC-1 = assay: Thymidine incorporation (3H-TdR) anti-proliferative assay, PANC-1; format: cell-based; conditions: Homo sapiens; PANC-1, Pancreatic cancer
Method: as §1

MDA-MB-435S = assay: Thymidine incorporation (3H-TdR) anti-proliferative assay, MDA-MB-435S; format: cell-based; conditions: Homo sapiens, Breast cancer
Method: as §1

ZR-75-1 = assay: Thymidine incorporation (3H-TdR) anti-proliferative assay, ZR-75-1; format: cell-based; conditions: Homo sapiens; ZR-75-1, Breast cancer
Method: as §1

COLO-205 = assay: Thymidine incorporation (3H-TdR) anti-proliferative assay, COLO-205; format: cell-based; conditions: Homo sapiens; COLO-205, Colon cancer
Method: as §1

SK-OV-3 = assay: Thymidine incorporation (3H-TdR) anti-proliferative assay, SK-OV-3; format: cell-based; conditions: Homo sapiens; SK-OV-3, Ovarian cancer
Method: as §1

[3] = Hygroscopicity by dynamic moisture adsorption (DVS); format: physicochemical; conditions: for Hygroscopicity: 25° C./80% RH, succinate
Method: Dynamic moisture adsorption (DVS) was used to evaluate the hygroscopicity of compound A and salt forms under the condition of 25° C. and 80% RH.

PC-3 = assay: Thymidine incorporation (3H-TdR) anti-proliferative assay, PC-3; format: cell-based; conditions: Homo sapiens; PC-3, Prostate cancer
Method: as §1

[4] = Solid-state stability, 14 days, HPLC; format: physicochemical
Method: Compound A salts and Compound A were tested for their solid-state stability under the conditions of 25° C./60% RH and 40° C./75% RH.

[5] = Pharmacokinetic study of Compound A succinate in cynomolgus monkeys; format: in vivo; conditions: for AUC(0-inf) / AUC(0-t) / Cmax / clearance / half-life / Vd: cynomolgus monkey, plasma; for Vd: read-out: Vz; for F: succinate
Method: In a separate study, four cynomolgus monkeys were divided into two groups (n=2 per group), and given Compound A succinate at 2 mg/kg by i.v. and 24 mg/kg by i.g., respectively. The plasma samples were collected, analyzed and PK parameters were calculated as above.

[6] = tested on: A2780 ovarian cancer cells; assay: Subcutaneous A2780 ovarian cancer xenograft; format: in vivo, female BALB/c nude mice; conditions: for Tumor volume (±S): 14 days; for Mean tumor growth inhibition (T/C): day 14
Method: Compound A succinate was also assessed for in vivo anti-tumor activity in subcutaneous xenografts. Briefly, female BALB/c nude mice were inoculated with A2780 ovarian cancer cells; when the mean tumour volume reached 150-200 mm^3, animals were randomized to groups. The animals (n=8 per group) were treated orally with vehicle (ultra-pure water), Compound A succinate (62.5, 125 or 250 mg/kg), or Palbociclib (75 mg/kg) once a day for 14 consecutive days. Mice were observed daily for signs of toxicity and weight loss, and tumour volume measured every other day. […] Palbociclib was efficacious at 75 mg/kg, resulting in T/C of 42.8% (Table 6).

MOLM-13 = assay: Thymidine incorporation (3H-TdR) anti-proliferative assay, MOLM-13; format: cell-based; conditions: Homo sapiens; MOLM-13, Leukemia
Method: as §1

U-87MG = assay: Thymidine incorporation (3H-TdR) anti-proliferative assay, U-87MG; format: cell-based; conditions: Homo sapiens, Brain tumor
Method: as §1

MV-4-11 = assay: Thymidine incorporation (3H-TdR) anti-proliferative assay, MV-4-11; format: cell-based; conditions: Homo sapiens, MV4-11; MV-4-11, Leukemia
Method: as §1

[7] = iv, i.v. 2 mg/kg, female cynomolgus monkeys
[8] = iv, i.v. 2 mg/kg, male cynomolgus monkeys
[9] = po, i.g. 24 mg/kg, female cynomolgus monkeys
[10] = po, i.g. 24 mg/kg, male cynomolgus monkeys

With `CCN1CCN(Cc2ccc(Nc3ncc(F)c(-c4sc(NC5CCCC5)nc4C)n3)nc2)CC1.O=C(O)CCC(=O)O` [Compound A succinate, N-Cyclopentyl-5-(2-((5-((4-ethylpiperazin-1-yl)methyl)pyridin-2-yl)amino)-5-fluoropyrimidin-4-yl)-4-methylthiazol-2-amine succinate] the IC50 (Raji) was 608 nM, the “solubility compared to Compound A free base” value ([1]; both FaSSIF and water) was “significantly increased” and the solubility at 1 h ([1]; FaSSIF) was 8200 µg/mL. It also gave a solubility at 2 h ([1]; FaSSIF) of 8100 µg/mL, a solubility at 4 h ([1]; FaSSIF) of 8100 µg/mL and a solubility at 24 h ([1]; FaSSIF) of 1100 µg/mL. The solubility at 1 h ([1]; water, H2O) was 2000 µg/mL, the solubility at 2 h ([1]; water, H2O) was 2000 µg/mL and the solubility at 4 h ([1]; water, H2O) was 2100 µg/mL. The solubility at 24 h ([1]; water, H2O) was 2300 µg/mL, the “Tumor volume (±S)” value ([2]; 50 mg/kg orally once daily) was 941.10 ± 80.90 mm^3 and the “Inhibition of tumor growth (T/C)” value ([2]; 50 mg/kg orally once daily, listed as compound A Succinate) was 36.26%. For the same compound, the “Inhibition of tumor growth (T/C)” value ([2]; 50 mg/kg orally once daily) was 36.3%, the “Tumor volume (±S)” value ([2]; 100 mg/kg orally once daily) was 443.72 ± 40.49 mm^3 and the “Inhibition of tumor growth (T/C)” value ([2]; 100 mg/kg orally once daily, listed as compound A Succinate) was 74.69%. The “Inhibition of tumor growth (T/C)” value ([2]; 100 mg/kg orally once daily) was 74.7%, the IC50 (PANC-1) was 812 nM and the IC50 (MDA-MB-435S) was 37.3 nM. It also gave an IC50 (ZR-75-1) of 35.7 nM, an IC50 (COLO-205) of 839 nM and an IC50 (SK-OV-3) of 812 nM. For the same compound, the “Moisture absorbed at 25° C./80% RH” value [3] was 1.1%, the Hygroscopicity ([3]; listed as Succinate) was “Slightly hygroscopic” and the Hygroscopicity [3] was “minimal hygroscopicity”. The IC50 (PC-3) was 168 nM, the Purity ([4]; 25° C./60% RH) was 97.9 area % and the Relative purity ([4]; 25° C./60% RH) was 100.0 % of initial. For the same compound, the Purity ([4]; 40° C./75% RH) was 97.9 area %, the Relative purity ([4]; 40° C./75% RH) was 100.0 % of initial and the AUC(0-inf) [5, 7] was 1190 ng·h/mL. For the same compound, the AUC(0-t) [5, 7] was 1170 ng·h/mL, the Cmax [5, 7] was 371 ng/mL and the clearance [5, 7] was 31 mL/min/kg. For the same compound, the half-life [5, 7] was 4.7 h, the Vd [5, 7] was 13.2 L/kg and the AUC(0-inf) [5, 8] was 872 ng·h/mL. It also gave an AUC(0-t) [5, 8] of 843 ng·h/mL, a Cmax [5, 8] of 240 ng/mL and a clearance [5, 8] of 39.1 mL/min/kg. For the same compound, the half-life [5, 8] was 5.3 h, the Vd [5, 8] was 17.7 L/kg and the AUC(0-inf) [5, 9] was 7740 ng·h/mL. The AUC(0-t) [5, 9] was 7700 ng·h/mL, the Cmax [5, 9] was 532 ng/mL and the half-life [5, 9] was 6 h. The AUC(0-inf) [5, 10] was 7420 ng·h/mL, the AUC(0-t) [5, 10] was 7370 ng·h/mL and the Cmax [5, 10] was 593 ng/mL. For the same compound, the half-life [5, 10] was 6 h, the F ([5]; i.g. 24 mg/kg, female cynomolgus monkeys) was 54.9% and the F ([5]; i.g. 24 mg/kg, male cynomolgus monkeys) was 72.8%. For the same compound, the “Tumor volume (±S)” value ([6]; 62.5 mg/kg orally once a day) was 1789.5 ± 131.5 mm^3, the “Mean tumor growth inhibition (T/C)” value ([6]; 62.5 mg/kg orally once a day) was 44.8% and the “Tumor volume (±S)” value ([6]; 125 mg/kg orally once a day) was 1009.6 ± 87.0 mm^3. The “Mean tumor growth inhibition (T/C)” value ([6]; 125 mg/kg orally once a day) was 70.8%, the “Tumor volume (±S)” value ([6]; 250 mg/kg orally once a day) was 546.4 ± 71.1 mm^3 and the “Mean tumor growth inhibition (T/C)” value ([6]; 250 mg/kg orally once a day) was 86.2%. The IC50 (MOLM-13) was 260 nM, the IC50 (U-87MG) was 42.6 nM and the IC50 (MV-4-11) was 88.8 nM.
